Test results reported in patent US11345712B2, “Protein-targeting compounds and pharmaceutical compositions thereof, and their therapeutic applications” (BioTheryX, Inc., priority 2019, dated 2022).

Each molecule was assayed on MOLM-13 cells (assay: MOLM-13 cell viability assay (CellTiter-Glo)). Settings: Homo sapiens, MOLM-13, 72 h, 3 days, concentration of 1 μM, read-out: Antiproliferative Activity (inhibition, MOLM-13 cell viability).
Assay type: cell-based
Description: MOLM-13 cells were cultured in RPMI 1640 media supplemented with 10% fetal bovine serum, streptomycin, and penicillin. The cells were plated in white walled 96-well plates at 2,500 cells/well. The cells were incubated in DMSO (control) or an indicated compound for 3 days at 37° C. and 5% CO2. Following the incubation period, 100 μL of CELLTITER-GLO® (CTG) reagent was added to each well. Following a 10 minutes incubation with shaking, luminescence was measured using an ENVISION® Multimode plate reader.

Structure (SMILES)	cytotoxicity at 1 µM [%]
Cc1ccc(C(=O)C(=O)NCc2scc3c2CN(C2CCC(=O)NC2=O)C3=O)cc1Cl (centres unmarked) [Compound I-6, 2-(3-chloro-4-methylphenyl)-N-((5-(2,6-dioxopiperidin-3-yl)-4-oxo-5,6-dihydro-4H-thieno[3,4-c]pyrrol-1-yl)methyl)-2-oxoacetamide]	25 to 50
CN(C)c1ccc(C(=O)C(=O)NCc2scc3c2CN(C2CCC(=O)NC2=O)C3=O)cc1 (centres unmarked) [Compound I-7, 2-(4-dimethylaminophenyl)-N-((5-(2,6-dioxopiperidin-3-yl)-4-oxo-5,6-dihydro-4H-thieno[3,4-c]pyrrol-1-yl)methyl)-2-oxoacetamide]	< 25
O=C1CCC(N2Cc3c(csc3CNC(=O)C(=O)c3ccccc3)C2=O)C(=O)N1 (centres unmarked) [Compound I-8, 2-phenyl-N-((5-(2,6-dioxopiperidin-3-yl)-4-oxo-5,6-dihydro-4H-thieno[3,4-c]pyrrol-1-yl)methyl)-2-oxoacetamide]	< 25
O=C1CCC(N2Cc3c(csc3CNC(=O)C(=O)c3cccs3)C2=O)C(=O)N1 (centres unmarked) [Compound I-9, N-((5-(2,6-dioxopiperidin-3-yl)-4-oxo-5,6-dihydro-4H-thieno[3,4-c]pyrrol-1-yl)methyl)-2-(thiophen-2-yl)-2-oxoacetamide]	< 25
CC(C)(C)c1ccc(C(=O)C(=O)NCc2ccc3c(c2)CN([C@H]2CCCC(=O)NC2=O)C3=O)cc1 [Compound I-10, (S)-2-(4-(tert-butyl)phenyl)-N-((2-(2,7-dioxoazepan-3-yl)-1-oxoisoindolin-5-yl)methyl)-2-oxoacetamide]	> 80
COc1ccc(C(=O)C(=O)NCc2scc3c2CN(C2CCC(=O)NC2=O)C3=O)cc1 (centres unmarked) [Compound I-11, 2-(4-methoxyphenyl)-N-((5-(2,6-dioxopiperidin-3-yl)-4-oxo-5,6-dihydro-4H-thieno[3,4-c]pyrrol-1-yl)methyl)-2-oxoacetamide]	< 25
O=C1CCC(N2Cc3c(csc3CNC(=O)C(=O)c3ccc(C4CC4)cc3)C2=O)C(=O)N1 (centres unmarked) [Compound I-12, 2-(4-cyclopropylphenyl)-N-((5-(2,6-dioxopiperidin-3-yl)-4-oxo-5,6-dihydro-4H-thieno[3,4-c]pyrrol-1-yl)methyl)-2-oxoacetamide]	< 25
CC(C)(C)c1ccc(C(=O)C(=O)NCc2scc3c2C(=O)N(C2CCC(=O)NC2=O)C3=O)cc1 (centres unmarked) [Compound I-13, 2-(4-(tert-butyl)phenyl)-N-((5-(2,6-dioxopiperidin-3-yl)-4,6-dioxo-5,6-dihydro-4H-thieno[3,4-c]pyrrol-1-yl)methyl)-2-oxoacetamide]	< 25
CC(C)c1ccc(C(=O)C(=O)NCc2scc3c2CN(C2CCC(=O)NC2=O)C3=O)cc1 (centres unmarked) [Compound I-14, 2-(4-isopropylphenyl)-N-((5-(2,6-dioxopiperidin-3-yl)-4-oxo-5,6-dihydro-4H-thieno[3,4-c]pyrrol-1-yl)methyl)-2-oxoacetamide]	25 to 50
CCC(C)c1ccc(C(=O)C(=O)NCc2scc3c2CN(C2CCC(=O)NC2=O)C3=O)cc1 (centres unmarked) [Compound I-15, 2-(4-(sec-butyl)phenyl)-N-((5-(2,6-dioxopiperidin-3-yl)-4-oxo-5,6-dihydro-4H-thieno[3,4-c]pyrrol-1-yl)methyl)-2-oxoacetamide]	25 to 50
O=C1CCC(N2Cc3c(csc3CNC(=O)C(=O)c3ccc(O)cc3)C2=O)C(=O)N1 (centres unmarked) [Compound I-16, 2-(4-hydroxyphenyl)-N-((5-(2,6-dioxopiperidin-3-yl)-4-oxo-5,6-dihydro-4H-thieno[3,4-c]pyrrol-1-yl)methyl)-2-oxoacetamide]	< 25
Cc1ccc(C(=O)C(=O)NCc2scc3c2CN(C2CCC(=O)NC2=O)C3=O)cc1 (centres unmarked) [Compound I-17, 2-(4-methylphenyl)-N-((5-(2,6-dioxopiperidin-3-yl)-4-oxo-5,6-dihydro-4H-thieno[3,4-c]pyrrol-1-yl)methyl)-2-oxoacetamide]	< 25
O=C1CCC(N2Cc3c(csc3CNC(=O)C(=O)c3ccc(Cl)cc3)C2=O)C(=O)N1 (centres unmarked) [Compound I-18, 2-(4-chlorophenyl)-N-((5-(2,6-dioxopiperidin-3-yl)-4-oxo-5,6-dihydro-4H-thieno[3,4-c]pyrrol-1-yl)methyl)-2-oxoacetamide]	< 25
CC(C)(C)c1cccc(C(=O)C(=O)NCc2scc3c2CN(C2CCC(=O)NC2=O)C3=O)c1 (centres unmarked) [Compound I-19, 2-(3-tert-butylphenyl)-N-((5-(2,6-dioxopiperidin-3-yl)-4-oxo-5,6-dihydro-4H-thieno[3,4-c]pyrrol-1-yl)methyl)-2-oxoacetamide]	> 80
CC(=O)Nc1ccc(C(=O)C(=O)NCc2scc3c2CN(C2CCC(=O)NC2=O)C3=O)cc1 (centres unmarked) [Compound I-20, 2-(4-acetamidophenyl)-N-((5-(2,6-dioxopiperidin-3-yl)-4-oxo-5,6-dihydro-4H-thieno[3,4-c]pyrrol-1-yl)methyl)-2-oxoacetamide]	< 25
O=C1CCC(N2Cc3c(csc3CNC(=O)C(=O)c3ccc(-c4ccccc4)cc3)C2=O)C(=O)N1 (centres unmarked) [Compound I-21, 2-([1,1′-biphenyl]-4-yl)-N-((5-(2,6-dioxopiperidin-3-yl)-4-oxo-5,6-dihydro-4H-thieno[3,4-c]pyrrol-1-yl)methyl)-2-oxoacetamide]	25 to 50
O=C1CCC(N2Cc3c(csc3CNC(=O)C(=O)c3ccc(F)cc3)C2=O)C(=O)N1 (centres unmarked) [Compound I-22, 2-(4-fluorophenyl)-N-((5-(2,6-dioxopiperidin-3-yl)-4-oxo-5,6-dihydro-4H-thieno[3,4-c]pyrrol-1-yl)methyl)-2-oxoacetamide]	< 25
O=C1CCC(N2Cc3c(csc3CNC(=O)C(=O)c3ccc(C(F)(F)F)cc3)C2=O)C(=O)N1 (centres unmarked) [Compound I-23, 2-(4-trifluoromethylphenyl)-N-((5-(2,6-dioxopiperidin-3-yl)-4-oxo-5,6-dihydro-4H-thieno[3,4-c]pyrrol-1-yl)methyl)-2-oxoacetamide]	< 25
O=C1CCC(N2Cc3c(csc3CNC(=O)C(=O)c3ccc(Cl)c(Cl)c3)C2=O)C(=O)N1 (centres unmarked) [Compound I-24, 2-(3,4-dichlorophenyl)-N-((5-(2,6-dioxopiperidin-3-yl)-4-oxo-5,6-dihydro-4H-thieno[3,4-c]pyrrol-1-yl)methyl)-2-oxoacetamide]	25 to 50
CN(C)Cc1ccc(C(=O)C(=O)NCc2scc3c2CN(C2CCC(=O)NC2=O)C3=O)cc1 (centres unmarked) [Compound I-25, 2-(4-((dimethylamino)methyl)phenyl)-N-((5-(2,6-dioxopiperidin-3-yl)-4-oxo-5,6-dihydro-4H-thieno[3,4-c]pyrrol-1-yl)methyl)-2-oxoacetamide]	< 25
O=C1CCC(N2Cc3c(csc3CNC(=O)C(=O)c3ccc(CN4CCOCC4)cc3)C2=O)C(=O)N1 (centres unmarked) [Compound I-26, 2-(4-(morpholinomethyl)phenyl)-N-((5-(2,6-dioxopiperidin-3-yl)-4-oxo-5,6-dihydro-4H-thieno[3,4-c]pyrrol-1-yl)methyl)-2-oxoacetamide]	< 25
Cc1cc(C(=O)C(=O)NCc2scc3c2CN(C2CCC(=O)NC2=O)C3=O)ccc1C(C)(C)C (centres unmarked) [Compound I-27, 2-(3-methyl-4-(tert-butyl)phenyl)-N-((5-(2,6-dioxopiperidin-3-yl)-4-oxo-5,6-dihydro-4H-thieno[3,4-c]pyrrol-1-yl)methyl)-2-oxoacetamide]	> 80
CC(C)(C)c1ccc(C(=O)C(=O)NCc2cccc3c2CN(C2CCC(=O)NC2=O)C3=O)cc1 (centres unmarked) [Compound I-28, 2-(4-(tert-butyl)phenyl)-N-((2-(2,6-dioxopiperidin-3-yl)-1-oxoisoindolin-4-yl)methyl)-2-oxoacetamide]	> 80
CC(C)(C)c1ccc(C(=O)C(=O)NCc2cc(F)cc3c2CN(C2CCC(=O)NC2=O)C3=O)cc1 (centres unmarked) [Compound I-29, 2-(4-(tert-butyl)phenyl)-N-((2-(2,6-dioxopiperidin-3-yl)-6-fluoro-1-oxoisoindolin-4-yl)methyl)-2-oxoacetamide]	> 80
O=C1CCC(N2Cc3c(CNC(=O)C(=O)c4ccc(C5(C(F)(F)F)CC5)cc4)cccc3C2=O)C(=O)N1 (centres unmarked) [Compound I-30, N-((2-(2,6-dioxopiperidin-3-yl)-1-oxoisoindolin-4-yl)methyl)-2-oxo-2-(4-(1-(trifluoromethyl)cyclopropyl)phenyl)acetamide]	> 80
CN1CCC(c2ccc(C(=O)C(=O)NCc3scc4c3CN(C3CCC(=O)NC3=O)C4=O)cc2)CC1 (centres unmarked) [Compound I-31, N-((5-(2,6-dioxopiperidin-3-yl)-4-oxo-5,6-dihydro-4H-thieno[3,4-c]pyrrol-1-yl)methyl)-2-(4-(1-methylpiperidin-4-yl)phenyl)-2-oxoacetamide]	< 25
CC(C)(C)c1ccc(C(=O)C(=O)NCc2ccc3c(c2)C(=O)N(C2CCC(=O)NC2=O)C3=O)cc1 (centres unmarked) [Compound I-32, 2-(4-(tert-butyl)phenyl)-N-((2-(2,6-dioxopiperidin-3-yl)-1,3-dioxoisoindolin-5-yl)methyl)-2-oxoacetamide]	> 80
CC(C)(C)c1cccc(C(=O)C(=O)NCc2ccc3c(c2)CN(C2CCC(=O)NC2=O)C3=O)c1 (centres unmarked) [Compound I-33, 2-(3-(tert-butyl)phenyl)-N-((2-(2,6-dioxopiperidin-3-yl)-1-oxoisoindolin-5-yl)methyl)-2-oxoacetamide]	> 80
CN(Cc1ccc2c(c1)CN(C1CCC(=O)NC1=O)C2=O)C(=O)C(=O)c1ccc(C(C)(C)C)cc1 (centres unmarked) [Compound I-34, 2-(4-(tert-butyl)phenyl)-N-((2-(2,6-dioxopiperidin-3-yl)-1-oxoisoindolin-5-yl)methyl)-N-methyl-2-oxoacetamide]	< 25
